Measured values from patent US20200377459A1, “CHARGED ION CHANNEL BLOCKERS AND METHODS FOR USE” (President and Fellows of Harvard College, priority 2015, published 2020).
Entries after “also recorded” stand apart in the source; their conditions may differ.

Experiments:
[1] = tested on: thermal nociceptive threshold; assay: Thermal nociceptive threshold after acute intraplantar injection in naive animals; assay type: in vivo, rats; conditions: for difference in thermal nociceptive threshold between contralateral and injected paw: rats, acute intraplantar injection 50 μl, 0.5%, no injury
[2] = tested on: paw incision-induced thermal hyperalgesia; assay: Paw incision-induced thermal hyperalgesia; assay type: in vivo; conditions: rats, intradermal injection into the surgical wound, 1 and 3 hour post-treatment
Protocol: FIGS. 3A-3B are data showing reversal of paw incision-induced thermal hyperalgesia by charged sodium channel blockers. […] The data are means±SEM of 8 rats per group. The statistical comparison with the contralateral paw (*) is indicated by ***P<0.001. All procedures were approved by the Institutional Animal Care and Use Committees. Mice and rats were housed in standard environmental conditions (12-h light/dark cycle; 23° C.; food and water ad libitum) at facilities accredited by the Association for Assessment and Accreditation of Laboratory Animal Care. 8-week old male BALB/c (stock number: 001026) and C57BL/6J (stock number 000664) mice were purchased from Jackson Laboratory and respectively used in allergic airway inflammation (FIG. 5) and pain hypersensitivity model (FIGS. 2A-2D). 6-week old male Sprague-Dawley (stock number: 400) rats, 150±25 grams, were purchased from Charles River laboratory and used to assess pain hypersensitivity (FIG. 3). The compounds were injected in the plantar surface of each animal's right hind paw in 10 μl (mice) or 50 μl (rats) volume of 1:1 emulsion of Complete Freund's Adjuvant (CFA). […] On the 4th day, their thermal nociceptive threshold was evaluated. […] Impact of treatment was analyzed 1 h prior and 1, 3, 6 and 24 h post-treatment. […] With each reading the apparatus was set with a cut-off time of 32 s. […]

[3] = tested on: allergic airway inflammation induced by Ovalbumin; assay: Ovalbumin allergic airway inflammation, BALF immune cell counts; assay type: in vivo; conditions: OVA-exposed mice, aerosolized 100 μM on day 18, read day 21
Protocol: FIG. 5A-5E are results showing that lung sensory neuron silencing with N-ethyl-etidocaine (Compound 21) reduces allergic airway inflammation. OVA-exposed mice (day 21) develop increases in BALF total (FIG. 5A), and CD45+ cells (FIG. 5B), including eosinophil (FIG. 5C), macrophage (FIG. 5D) and T-cell (FIG. 5E) counts. In comparison to vehicle treatment, the silencing of sensory neurons using aerosolized QX-314 (100 μM, hollow square) or N-ethyl-etidocaine (Compound 21) (100 μM, dark square) decreased these levels. […] Data expressed as mean S.E.M; Two-tailed unpaired Student's t-test (n=8-16 animals/group; 1-2 cohorts). […]
Allergic airway inflammation was studied in an ovalbumin (OVA) based model. […] Drugs were nebulized on day 18 (10:00 am) and inflammation (BALF cell content)/airway hyper-responsiveness were assessed on day 21 (10:00 am). […]
Bronchoalveolar lavage fluid (BALF) cells were re-suspended in FACS buffer (PBS, 2% FCS, EDTA), and incubated with Fc block (0.5 mg/ml, 10 min; BD Biosciences). […] A leukocyte differential count was determined during flow cytometry analysis of cells expressing the common leukocyte antigen CD45 (BD Pharmigen; cat no: 553079). […] Total BAL cell counts were performed using a standard hemocytometer, with absolute cell numbers calculated as total BAL cell number multiplied by the percentage of cell subpopulation as determined by FACS.

| SMILES | long lasting analgesia in naïve animals ([1]; naïve animals) | difference in thermal nociceptive threshold between contralateral and injected paw [1] | thermal hyperalgesia after surgical incision versus contralateral paw [2] | BALF immune cell levels (total, CD45+, eosinophil, macrophage, T-cell) [3] |
| --- | --- | --- | --- | --- |
| CCC[N+](CC)(CC)C(CC)C(=O)Nc1c(C)cccc1C (stereo not shown) [Compound 21, N-ethyl etidocaine] | without long lasting analgesia | no differences | absent | blocked; also recorded: potently reversed; also recorded: decreased; also recorded: tendency toward a greater decrease in comparison to QX-314 |
| CC[N+](CC)(CC)CC(=O)Nc1c(C)cccc1C [QX-314, reference compound] |  | no differences | absent | decreased |
